Laboratory results published in PubChem BioAssay (NCI).
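Cultured in 96-well plates, cells were exposed to test compound for 48 hours across five concentrations. GI50 marks 50% less growth. TGI: concentration producing complete growth inhibition.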

Assays:
Assay in all cases: growth of human tumour cells (NCI), 48 h
[1] = system: 786-0 renal
[2] = system: A498 renal
[3] = system: A549 NSCLC
[4] = system: ACHN renal
[5] = system: BT-549 breast
[6] = system: CAKI-1 renal
[7] = system: CCRF-CEM leukemia
[8] = system: COLO 205 colon
[9] = system: DU-145 prostate
[10] = system: EKVX NSCLC
[11] = system: HCC-2998 colon
[12] = system: HCT-116 colon
[13] = system: HCT-15 colon
[14] = system: HL-60(TB) leukemia
[15] = system: HOP-62 NSCLC
[16] = system: HOP-92 NSCLC
[17] = system: HS 578T breast
[18] = system: HT29 colon
[19] = system: IGROV1 ovarian
[20] = system: K-562 leukemia
[21] = system: KM12 colon
[22] = system: LOX IMVI melanoma
[23] = system: M14 melanoma
[24] = system: MALME-3M melanoma
[25] = system: MCF7 breast
[26] = system: MDA-MB-231 breast
[27] = system: MDA-MB-435
[28] = system: MOLT-4 leukemia
[29] = system: NCI-H226 lung

For `N#Cc1cnc(=O)n(C2CC(O)C(CO)O2)c1` (configuration not stated), the GI50 [1] was greater than 100 µM, the TGI [1] was greater than 100 µM and the GI50 [2] was 17.5 µM. The TGI [2] was 82 µM, the GI50 [3] was greater than 100 µM and the TGI [3] was greater than 100 µM. For the same molecule, the GI50 [4] was greater than 100 µM, the TGI [4] was greater than 100 µM and the GI50 [5] was greater than 100 µM. For the same molecule, the TGI [5] was greater than 100 µM, the GI50 [6] was greater than 100 µM and the TGI [6] was greater than 100 µM. It also gave a GI50 [7] greater than 100 µM, a TGI [7] greater than 100 µM and a GI50 [8] greater than 100 µM. For the same molecule, the TGI [8] was greater than 100 µM, the GI50 [9] was greater than 100 µM and the TGI [9] was greater than 100 µM. The GI50 [10] was greater than 100 µM, the TGI [10] was greater than 100 µM and the GI50 [11] was greater than 100 µM. For the same molecule, the TGI [11] was greater than 100 µM, the GI50 [12] was greater than 100 µM and the TGI [12] was greater than 100 µM. For the same molecule, the GI50 [13] was greater than 100 µM, the TGI [13] was greater than 100 µM and the GI50 [14] was greater than 100 µM. For the same molecule, the TGI [14] was greater than 100 µM, the GI50 [15] was greater than 100 µM and the TGI [15] was greater than 100 µM. It also gave a GI50 [16] greater than 100 µM, a TGI [16] greater than 100 µM and a GI50 [17] greater than 100 µM. It also gave a TGI [17] greater than 100 µM, a GI50 [18] greater than 100 µM and a TGI [18] greater than 100 µM. For the same molecule, the GI50 [19] was greater than 100 µM, the TGI [19] was greater than 100 µM and the GI50 [20] was 93.1 µM. It also gave a TGI [20] greater than 100 µM, a GI50 [21] greater than 100 µM and a TGI [21] greater than 100 µM. For the same molecule, the GI50 [22] was greater than 100 µM, the TGI [22] was greater than 100 µM and the GI50 [23] was greater than 100 µM. For the same molecule, the TGI [23] was greater than 100 µM, the GI50 [24] was greater than 100 µM and the TGI [24] was greater than 100 µM. It also gave a GI50 [25] greater than 100 µM, a TGI [25] greater than 100 µM and a GI50 [26] greater than 100 µM. For the same molecule, the TGI [26] was greater than 100 µM, the GI50 [27] was greater than 100 µM and the TGI [27] was greater than 100 µM. It also gave a GI50 [28] greater than 100 µM, a TGI [28] greater than 100 µM and a GI50 [29] greater than 100 µM.
